Test results as given in patent US9133115B2 (ACHILLION PHARMACEUTICALS, INC., priority 2008, dated 2015).

The compounds below were run on HCV replicon (assay: HCV replicon replication assay (NPT ELISA) in Huh-7 replicon-containing cells). Conditions: Hepatitis C virus, 72 h; HCV replicon in Huh-7 cells, three days incubation; read-out: EC50.
Format: cell-based
Procedure, shortened: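 Replication was scored by capture ELISA of neomycin phosphotransferase, whose level tracks replicon replication, after graded compound treatment. The cells were Huh-7 harbouring an HCV-IRES/neo/EMCV-IRES/NS3–NS5B/3′-NTR replicon, plated at 6000-7500 cells/well and dosed 24 h later at 60-70% confluence; interferon alpha was the positive control.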

Structure (SMILES)	EC50 [µM]
COc1ccc2c(O[C@@H]3C[C@@H](C(=O)N[C@@H](C)C(=O)NS(=O)(=O)C4CC4)N(C(=O)[C@@H](CC(=O)N4CCCCC4)C(C)(C)C)C3)cc(-c3ccccc3)nc2c1 [Compound 114, (2S,4R)-1-((S)-2-tert-butyl-4-oxo-4-(piperidin-1-yl)butanoyl)-N-((S)-1-(cyclopropanesulfon-amido)-1-oxopropan-2-yl)-4-(7-methoxy-2-phenylquinolin-4-yloxy)pyrrolidine-2-carboxamide]	1 to 10
COc1ccc2c(O[C@@H]3C[C@@H](C(=O)N[C@H](C(=O)NS(=O)(=O)C4CC4)C(C)(C)C)N(C(=O)[C@@H](CC(=O)N4CCCCC4)C(C)(C)C)C3)cc(-c3ccccc3)nc2c1 [Compound 115, (2S,4R)-1-((S)-2-tert-butyl-4-oxo-4-(piperidin-1-yl)butanoyl)-N-((S)-1-(cyclopropanesulfon-amido)-3,3-dimethyl-1-oxobutan-2-yl)-4-(7-methoxy-2-phenylquinolin-4-yloxy)pyrrolidine-2-carboxamide]	1 to 10
CC[C@@H](NC(=O)[C@@H]1C[C@@H](Oc2cc(-c3ccccc3)nc3cc(OC)ccc23)CN1C(=O)[C@@H](CC(=O)N1CCCCC1)C(C)(C)C)C(=O)NS(=O)(=O)C1CC1 [Compound 116, (2S,4R)-1-((S)-2-tert-butyl-4-oxo-4-(piperidin-1-yl)butanoyl)-N-((R)-1-(cyclopropanesulfon-amido)-1-oxobutan-2-yl)-4-(7-methoxy-2-phenylquinolin-4-yloxy)pyrrolidine-2-carboxamide]	1 to 10
CCC[C@@H](NC(=O)[C@@H]1C[C@@H](Oc2cc(-c3ccccc3)nc3cc(OC)ccc23)CN1C(=O)[C@@H](CC(=O)N1CCCCC1)C(C)(C)C)C(=O)NS(=O)(=O)C1CC1 [Compound 117, (2S,4R)-1-((S)-2-tert-butyl-4-oxo-4-(piperidin-1-yl)butanoyl)-N-((R)-1-(cyclopropanesulfon-amido)-1-oxopentan-2-yl)-4-(7-methoxy-2-phenylquinolin-4-yloxy)pyrrolidine-2-carboxamide]	1 to 10
COc1ccc2c(O[C@@H]3C[C@@H](C(=O)N[C@@H](C(=O)NS(=O)(=O)C4CC4)C(C)C)N(C(=O)[C@@H](CC(=O)N4CCCCC4)C(C)(C)C)C3)cc(-c3ccccc3)nc2c1 [Compound 118, (2S,4R)-1-((S)-2-tert-butyl-4-oxo-4-(piperidin-1-yl)butanoyl)-N-((R)-1-(cyclopropanesulfon-amido)-3-methyl-1-oxobutan-2-yl)-4-(7-methoxy-2-phenylquinolin-4-yloxy)pyrrolidine-2-carboxamide]	1 to 10
C=C[C@@H]1C[C@]1(NC(=O)[C@@H]1C[C@@H](Oc2cc(-c3ccccc3)nc3cc(OC)ccc23)CN1C(=O)[C@@H](CC(=O)N1CCC(F)(F)CC1)C(C)(C)C)C(=O)NS(=O)(=O)C1CC1 [Compound 119, (2S,4R)-1-((S)-2-tert-butyl-4-(4,4-difluoropiperidin-1-yl)-4-oxobutanoyl)-N-((1R,2S)-1-(cyclopropylsulfonyl-carbamoyl)-2-vinylcyclopropyl)-4-(7-methoxy-2-phenylquinolin-4-yloxy)pyrrolidine-2-carboxamide]	< 1
C=C[C@@H]1C[C@]1(NC(=O)[C@@H]1C[C@@H](Oc2cc(-c3ccccc3)nc3cc(OC)ccc23)CN1C(=O)[C@@H](CC(=O)N1CCCCC1)C(C)(C)C)C(=O)NS(=O)(=O)CC [Compound 120, (2S,4R)-1-((S)-2-tert-butyl-4-oxo-4-(piperidin-1-yl)butanoyl)-N-((1R,2S)-1-(ethyl-sulfonylcarbamoyl)-2-vinylcyclopropyl)-4-(7-methoxy-2-phenylquinolin-4-yloxy)pyrrolidine-2-carboxamide]	< 1
C=C[C@@H]1C[C@]1(NC(=O)[C@@H]1C[C@@H](Oc2cc(-c3ccccc3)nc3cc(OC)ccc23)CN1C(=O)[C@@H](CC(=O)N1CCCCC1)C1CC1)C(=O)NS(=O)(=O)C1CC1 [Compound 121, (2S,4R)-1-((S)-2-cyclopropyl-4-oxo-4-(piperidin-1-yl)butanoyl)-N-((1R,2S)-1-(cyclopropylsulfonyl-carbamoyl)-2-vinylcyclopropyl)-4-(7-methoxy-2-phenylquinolin-4-yloxy)pyrrolidine-2-carboxamide]	< 1
C=C[C@@H]1C[C@]1(NC(=O)[C@@H]1C[C@@H](Oc2nc(-c3ccccn3)nc3ccsc23)CN1C(=O)[C@@H](CC(=O)N1CCCCC1)C(C)(C)C)C(=O)NS(=O)(=O)C1CC1 [Compound 122, (2S,4R)-1-((S)-2-tert-butyl-4-oxo-4-(piperidin-1-yl)butanoyl)-N-((1R,2S)-1-(cyclopropylsulfonyl-carbamoyl)-2-vinylcyclopropyl)-4-(2-(pyridin-2-yl)thieno[3,2-d]pyrimidin-4-yloxy)pyrrolidine-2-carboxamide]	1 to 10
C=C[C@@H]1C[C@]1(NC(=O)[C@@H]1C[C@@H](OC(=O)N2c3ccccc3Sc3ccccc32)CN1C(=O)[C@@H](CC(=O)N1CCCCC1)C(C)(C)C)C(=O)NS(=O)(=O)C1CC1 [Compound 123, (3R,5S)-1-((S)-2-tert-butyl-4-oxo-4-(piperidin-1-yl)butanoyl)-5-((1R,2S)-1-(cyclopropylsulfonyl-carbamoyl)-2-vinyl-cyclopropylcarbamo-yl)pyrrolidin-3-yl 10H-phenothiazine-10-carboxylate]	1 to 10
C=C[C@@H]1C[C@]1(NC(=O)[C@@H]1C[C@@H](Oc2cc(-c3ccccc3)nc3cc(OC)ccc23)CN1C(=O)[C@@H](CC(=O)N1CCCCC1)CC1CC1)C(=O)NS(=O)(=O)C1CC1 [Compound 124, (2S,4R)-1-((R)-2-(cyclopropylmethyl)-4-oxo-4-(piperidin-1-yl)butanoyl)-N-((1R,2S)-1-(cyclopropylsulfonyl-carbamoyl)-2-vinylcyclopropyl)-4-(7-methoxy-2-phenylquinolin-4-yloxy)pyrrolidine-2-carboxamide]	< 1
C=C[C@@H]1C[C@]1(NC(=O)[C@@H]1C[C@@H](Oc2cc(-c3ccccc3)nc3cc(OC)ccc23)CN1C(=O)[C@@H](CC(=O)N1CCCCC1c1nc2cc(F)ccc2[nH]1)C(C)(C)C)C(=O)NS(=O)(=O)C1CC1 (stereo partly drawn) [Compound 125, (2S,4R)-1-((2S)-2-tert-butyl-4-(2-(5-fluoro-1H-benzo[d]imidazol-2-yl)piperidin-1-yl)-4-oxobutanoyl)-N-((1R,2S)-1-(cyclo-propylsulfonyl-carbamoyl)-2-vinylcyclopropyl)-4-(7-methoxy-2-phenylquinolin-4-yloxy)pyrrolidine-2-carboxamide]	< 1
C=C[C@@H]1C[C@]1(NC(=O)[C@@H]1C[C@@H](Oc2cc(-c3ccccc3)nc3cc(OC)ccc23)CN1C(=O)[C@@H](CC(=O)n1c(C2CCCCN2)nc2cc(F)ccc21)C(C)(C)C)C(=O)NS(=O)(=O)C1CC1 (stereo partly drawn) [Compound 126, (2S,4R)-1-((2S)-2-tert-butyl-4-(5-fluoro-2-(piperidin-2-yl)-1H-benzo[d]imidazol-1-yl)-4-oxobutanoyl)-N-((1R,2S)-1-(cyclo-propylsulfonyl-carbamoyl)-2-vinylcyclopropyl)-4-(7-methoxy-2-phenylquinolin-4-yloxy)pyrrolidine-2-carboxamide]	< 1
CC(C)(C)[C@H](CC(=O)N1CCCCC1)C(=O)N1C[C@H](n2cnc3ccccc32)C[C@H]1C(=O)NCC(=O)NS(=O)(=O)C1CC1 [Compound 127, (2S,4R)-4-(1H-benzo[d]imidazol-1-yl)-1-((S)-2-tert-butyl-4-oxo-4-(piperidin-1-yl)butanoyl)-N-(2-(cyclopropane-sulfonamido)-2-oxoethyl)pyr-rolidine-2-carboxamide]	1 to 10
C=C[C@@H]1C[C@]1(NC(=O)[C@@H]1C[C@@H](n2nnc(-c3ccccc3)c2-c2ccccc2)CN1C(=O)[C@@H](CC(=O)N1CCCCC1)C(C)(C)C)C(=O)NS(=O)(=O)C1CC1 [Compound 128, (2S,4R)-1-((S)-2-tert-butyl-4-oxo-4-(piperidin-1-yl)butanoyl)-N-((1R,2S)-1-(cyclo-propylsulfonyl-carbamoyl)-2-vinylcyclopropyl)-4-(4,5-diphenyl-1H-1,2,3-triazol-1-yl)pyrrolidine-2-carboxamide]	1 to 10
C=C[C@@H]1C[C@]1(NC(=O)[C@@H]1C[C@@H](OC(=O)N(c2ccccc2)c2ccccc2)CN1C(=O)[C@@H](CC(=O)N1CCCCC1)C(C)(C)C)C(=O)NS(=O)(=O)C1CC1 [Compound 129, (3R,5S)-1-((S)-2-tert-butyl-4-oxo-4-(piperidin-1-yl)butanoyl)-5-((1R,2S)-1-(cyclopropylsulfon-ylcarbamoyl)-2-vinylcyclopropyl-carbamoyl)pyr-rolidin-3-yl diphenylcarbamate]	1 to 10
C=C[C@@H]1C[C@]1(NC(=O)[C@@H]1C[C@@H](OC(=O)N2c3ccccc3CCc3ccccc32)CN1C(=O)[C@@H](CC(=O)N1CCCCC1)C(C)(C)C)C(=O)NS(=O)(=O)C1CC1 [Compound 130, (3R,5S)-1-((S)-2-tert-butyl-4-oxo-4-(piperidin-1-yl)butanoyl)-5-((1R,2S)-1-(cyclo-propylsulfonyl-carbamoyl)-2-vinyl-cyclopropylcarbamo-yl)pyrrolidin-3-yl 10,11-dihydro-5H-dibenzo[b,f]azepine-5-carboxylate]	1 to 10
C=C[C@@H]1C[C@]1(NC(=O)[C@@H]1C[C@@H](OC(=O)N2c3ccccc3C=Cc3ccccc32)CN1C(=O)[C@@H](CC(=O)N1CCCCC1)C(C)(C)C)C(=O)NS(=O)(=O)C1CC1 [Compound 131, (Z)-((3R,5S)-1-((S)-2-tert-butyl-4-oxo-4-(piperidin-1-yl)butanoyl)-5-((1R,2S)-1-(cyclopropylsulfon-ylcarbamoyl)-2-vinylcyclopropyl-carbamoyl)pyr-rolidin-3-yl)5H-dibenzo[b,f]azepine-5-carboxylate]	1 to 10
